Measurements taken from ChEMBL document CHEMBL1201862, “PubChem BioAssay data set” (2004).
Activity calls are given as the source filed them.

Columns and labels:
[1] = biological target: T1, High affinity choline transporter 1 (Homo sapiens, UniProt Q9GZV3); assay: CHT inhibitors, dose response, cell-based, 5-point CRC, membrane potential dye (AID 504840); type: functional
T1 sequence (Q9GZV3 whole entry): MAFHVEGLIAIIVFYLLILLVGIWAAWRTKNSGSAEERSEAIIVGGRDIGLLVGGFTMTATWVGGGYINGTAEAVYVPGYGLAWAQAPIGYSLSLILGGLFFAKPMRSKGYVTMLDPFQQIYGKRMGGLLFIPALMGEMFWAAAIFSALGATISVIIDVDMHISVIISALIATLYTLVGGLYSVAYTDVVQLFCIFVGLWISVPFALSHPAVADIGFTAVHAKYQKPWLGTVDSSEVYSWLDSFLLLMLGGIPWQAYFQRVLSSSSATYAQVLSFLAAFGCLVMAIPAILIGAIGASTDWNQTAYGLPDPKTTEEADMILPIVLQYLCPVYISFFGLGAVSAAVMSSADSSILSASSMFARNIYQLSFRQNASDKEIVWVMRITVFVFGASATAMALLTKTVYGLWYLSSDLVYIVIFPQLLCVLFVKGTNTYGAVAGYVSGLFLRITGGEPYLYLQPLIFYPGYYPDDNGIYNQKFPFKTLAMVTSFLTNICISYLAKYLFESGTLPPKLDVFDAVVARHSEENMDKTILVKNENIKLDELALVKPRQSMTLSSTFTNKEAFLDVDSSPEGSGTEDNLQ

Coagulation factor XII = biological target: T2, Coagulation factor XII (Homo sapiens, UniProt P00748); type: functional;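 also: activated factor XIIa alpha cleaving a fluorogenic AMC peptide substrate; inhibitor potency from loss of enzyme activity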
T2 sequence (P00748 whole entry): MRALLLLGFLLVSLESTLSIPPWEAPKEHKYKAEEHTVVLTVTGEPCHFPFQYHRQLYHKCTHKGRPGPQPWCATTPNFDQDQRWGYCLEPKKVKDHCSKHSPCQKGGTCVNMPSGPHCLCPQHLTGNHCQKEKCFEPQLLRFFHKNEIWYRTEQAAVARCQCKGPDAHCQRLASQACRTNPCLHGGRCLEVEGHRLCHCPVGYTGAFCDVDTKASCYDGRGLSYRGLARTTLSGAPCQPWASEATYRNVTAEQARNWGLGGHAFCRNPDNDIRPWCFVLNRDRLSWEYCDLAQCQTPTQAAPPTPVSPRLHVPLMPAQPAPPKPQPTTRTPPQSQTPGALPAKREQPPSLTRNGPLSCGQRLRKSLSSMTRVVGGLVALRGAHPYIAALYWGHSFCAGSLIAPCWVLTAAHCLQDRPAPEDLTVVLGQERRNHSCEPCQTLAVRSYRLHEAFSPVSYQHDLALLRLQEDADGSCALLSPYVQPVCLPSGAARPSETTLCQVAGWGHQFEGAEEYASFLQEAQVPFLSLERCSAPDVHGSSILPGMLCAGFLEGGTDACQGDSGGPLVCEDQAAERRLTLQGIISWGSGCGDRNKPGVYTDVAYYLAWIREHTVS

[2] = biological target: Glyceraldehyde-3-phosphate dehydrogenase (Homo sapiens, UniProt P04406)
Chain of Glyceraldehyde-3-phosphate dehydrogenase (P04406 whole entry): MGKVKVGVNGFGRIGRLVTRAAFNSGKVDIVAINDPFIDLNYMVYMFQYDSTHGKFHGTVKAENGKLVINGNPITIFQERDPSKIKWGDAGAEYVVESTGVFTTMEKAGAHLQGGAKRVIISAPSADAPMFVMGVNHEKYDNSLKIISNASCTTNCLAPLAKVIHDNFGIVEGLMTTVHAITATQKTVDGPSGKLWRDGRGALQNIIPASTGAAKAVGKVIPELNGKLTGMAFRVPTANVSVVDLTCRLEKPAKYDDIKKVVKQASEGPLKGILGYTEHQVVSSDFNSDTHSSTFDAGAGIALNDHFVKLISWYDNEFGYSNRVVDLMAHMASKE

[3] = biological target: T3, Alkaline phosphatase, tissue-nonspecific isozyme (Homo sapiens, UniProt P05186); assay: human TNAP enzyme inhibitors, SAR follow-up, biochemical, luminescent, dose response (AID 1056)
T3 sequence (P05186 whole entry): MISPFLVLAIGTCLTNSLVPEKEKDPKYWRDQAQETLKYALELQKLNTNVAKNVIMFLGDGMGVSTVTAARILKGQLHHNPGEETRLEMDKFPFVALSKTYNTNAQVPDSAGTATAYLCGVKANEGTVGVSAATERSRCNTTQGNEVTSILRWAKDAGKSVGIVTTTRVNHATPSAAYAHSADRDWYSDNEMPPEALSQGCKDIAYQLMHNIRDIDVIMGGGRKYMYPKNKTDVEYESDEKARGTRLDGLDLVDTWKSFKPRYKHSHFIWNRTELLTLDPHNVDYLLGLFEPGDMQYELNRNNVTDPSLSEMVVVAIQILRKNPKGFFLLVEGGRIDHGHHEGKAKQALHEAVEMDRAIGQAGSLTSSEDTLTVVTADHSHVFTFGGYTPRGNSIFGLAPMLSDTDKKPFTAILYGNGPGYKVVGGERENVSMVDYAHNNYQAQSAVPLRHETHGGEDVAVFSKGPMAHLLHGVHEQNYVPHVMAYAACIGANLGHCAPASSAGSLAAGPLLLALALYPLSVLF

[4] = growth suppression of PTEN-null colon cells, dose response, cell-based, HCT116 PTEN knockout (AID 1047); type: functional;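 also: HCT116 colon tumor cells with PTEN knocked out; cells exposed to compound for 60 hours before readout; potency for loss of cell viability measured by luminescence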
[5] = growth suppression of beta-catenin-knockout colon cells, dose response, cell-based, HCT116, human colon tumor (AID 1045); type: functional;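 also: HCT116 colon tumor cells with beta catenin knocked out; cells exposed to compound for 60 hours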
[6] = THP-1 cell cytotoxicity, dose response, cytotoxicity control for Vif-APOBEC3G degradation inhibitor project, THP-1 cells (AID 1117359); type: functional; details: Human immunodeficiency virus 1, THP-1
HEK293 [7] = assay: NOD1 signaling inhibitors, primary screen, cell-based, luminescence, uHTS (AID 1578); type: functional; details: Homo sapiens
[8] = system: Streptococcus sp. 'group A'; assay: growth inhibition of control SK(-) GAS strain, dose response, counter-screen for streptokinase expression inhibitor project, luminescence, kanamycin, BacTiterGlo, confirmation (AID 1900); type: functional, organism-based
HEK293 [9] = assay: cells; type: functional, cell-based; details: Homo sapiens
HEK293 [10] = assay: cells; type: functional, cell-based; details: Homo sapiens; remark: listed apart in the source
HEK293 [11] = assay: NOD2 signaling inhibitors in MDP-stimulated cells, cell-based, uHTS, luminescence (AID 2001); type: functional; details: Homo sapiens
Streptococcus = assay: Group A Streptococcus viability loss, dose response, counter-screen for streptokinase expression inhibitor project, luminescence, BacTiterGlo (AID 1915); type: functional, organism-based;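 also: potency for reduction of bacterial viability or growth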
[12] = biological target: T4, Short transient receptor potential channel 4 (Mus musculus, UniProt Q9QUQ5); assay: mouse TRPC4 channel activators, dose response, cell-based, HEK293 TRPC4/mu-opioid, Fluo-4 calcium (AID 434937); type: functional
T4 sequence (Q9QUQ5 whole entry): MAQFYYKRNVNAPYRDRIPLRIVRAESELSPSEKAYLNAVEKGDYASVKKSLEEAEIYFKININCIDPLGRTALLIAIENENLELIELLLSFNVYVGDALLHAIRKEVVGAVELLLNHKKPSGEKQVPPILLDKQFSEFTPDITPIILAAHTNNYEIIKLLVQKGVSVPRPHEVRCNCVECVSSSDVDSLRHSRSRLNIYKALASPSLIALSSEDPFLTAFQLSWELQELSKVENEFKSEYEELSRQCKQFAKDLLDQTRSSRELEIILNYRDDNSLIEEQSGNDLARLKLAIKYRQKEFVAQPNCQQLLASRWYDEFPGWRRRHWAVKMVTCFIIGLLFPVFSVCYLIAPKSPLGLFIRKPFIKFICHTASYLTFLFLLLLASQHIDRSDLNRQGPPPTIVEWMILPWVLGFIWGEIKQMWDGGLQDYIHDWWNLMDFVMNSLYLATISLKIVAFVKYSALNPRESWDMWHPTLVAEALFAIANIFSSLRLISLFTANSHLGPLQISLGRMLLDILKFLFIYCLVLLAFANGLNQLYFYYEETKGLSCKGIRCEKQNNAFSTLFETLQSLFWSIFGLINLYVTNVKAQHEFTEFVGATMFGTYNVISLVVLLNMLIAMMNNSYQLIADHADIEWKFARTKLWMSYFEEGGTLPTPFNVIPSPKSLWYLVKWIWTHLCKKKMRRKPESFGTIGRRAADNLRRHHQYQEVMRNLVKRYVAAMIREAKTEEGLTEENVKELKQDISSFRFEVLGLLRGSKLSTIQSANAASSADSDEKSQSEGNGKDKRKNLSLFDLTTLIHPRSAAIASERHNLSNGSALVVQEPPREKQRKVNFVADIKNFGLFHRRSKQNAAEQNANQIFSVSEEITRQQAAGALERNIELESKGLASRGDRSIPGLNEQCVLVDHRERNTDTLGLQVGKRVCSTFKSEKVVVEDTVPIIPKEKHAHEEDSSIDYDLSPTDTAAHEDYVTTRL

BJ [13] = assay: cytotoxicity toward BJ-TERT fibroblasts, dose response, cell-based, RAS-independent, luminescence (AID 1933); type: functional; details: Homo sapiens
[14] = Luminescence Cell-Based Dose Response HTS to Identify Inhibitors of 5'UTR Stem-Loop Driven Prion Protein mRNA Translation in H4 Neuroglioblastoma Cells. [Related pubchem assays: 1827 (Project Summary), 1813 (Primary HTS)]; type: functional
[15] = inhibitors of SNCA 5'UTR-driven reporter translation, confirmation, H4 neuroglioma cells, luminescence (AID 1988); type: functional, cell-based
BJ [16] = assay: cells; type: functional, cell-based; details: Homo sapiens
[17] = biological target: Luciferin 4-monooxygenase (Photinus pyralis, UniProt P08659); assay: firefly luciferase enzyme inhibitors, dose response, biochemical, luminescence (AID 1891)
Chain of Luciferin 4-monooxygenase (P08659 whole entry): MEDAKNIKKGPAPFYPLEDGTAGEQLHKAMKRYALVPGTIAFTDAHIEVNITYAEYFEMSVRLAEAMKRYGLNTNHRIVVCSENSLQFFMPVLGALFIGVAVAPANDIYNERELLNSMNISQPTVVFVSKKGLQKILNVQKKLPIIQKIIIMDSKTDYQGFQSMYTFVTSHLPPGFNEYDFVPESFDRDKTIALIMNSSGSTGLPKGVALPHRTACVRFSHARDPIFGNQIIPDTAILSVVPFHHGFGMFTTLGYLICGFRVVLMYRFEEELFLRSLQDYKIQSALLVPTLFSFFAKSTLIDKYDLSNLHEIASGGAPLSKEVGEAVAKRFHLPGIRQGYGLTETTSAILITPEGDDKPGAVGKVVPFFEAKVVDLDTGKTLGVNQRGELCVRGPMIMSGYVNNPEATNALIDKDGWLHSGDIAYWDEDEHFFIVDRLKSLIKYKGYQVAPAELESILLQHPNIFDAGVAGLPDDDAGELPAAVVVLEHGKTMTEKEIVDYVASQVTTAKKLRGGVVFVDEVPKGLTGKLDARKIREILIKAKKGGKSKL

[18] = Luminescence Cell-Based Dose Confirmation HTS to Identify Inhibitors of Platelet Dense Granule Release. [Related pubchem assays: 1663 (Primary HTS), 1678 (Summary of Project)]; type: functional
BJ [19] = assay: cytotoxicity toward BJ-TERT-LT-ST fibroblasts, dose response, cell-based, RAS-independent, luminescence (AID 1935); type: functional; details: Homo sapiens;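 also: BJ fibroblasts immortalized with TERT plus LT and ST oncogenes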
[20] = cytotoxicity toward DRD oncogenic fibroblasts, dose response, cell-based, non-viral oncogenic, luminescence (AID 1934); type: functional; details: Homo sapiens
[21] = A549 cell cytotoxicity, dose response, cytotoxicity control, plate reader, cherry-pick, antagonist series (AID 743412); type: functional, cell-based
[22] = HepG2 cell cytotoxicity, dose response, cytotoxicity control, plate reader, cherry-pick, antagonist series (AID 743416); type: functional, cell-based
[23] = LGR2 antagonists, dose response, cell-based, HEK293, CRE-luciferase reporter, cherry pick, set 2 (AID 743343); type: functional;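 also: transfected cells were stimulated with diluted bursicon conditioned medium after compound addition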
[24] = MC4R antagonists, dose response, counter-screen for LGR2 antagonist project, cell-based, plate reader, cherry pick (AID 743444); type: functional;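 also: transfected HEK 293 cells stimulated with alpha-MSH peptide; potency of inhibitors of the alpha-MSH evoked signal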
[25] = HEK293 cell cytotoxicity, dose response, cytotoxicity control, plate reader, cherry-picked samples (AID 743446); type: functional, cell-based
[26] = P. falciparum 3D7-ScDHODH growth inhibitors, dose response, SYBR Green, dry powder samples (AID 1159570); type: functional, cell-based;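 also: parasite growth measured after 72 hours of compound exposure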
[27] = P. falciparum Dd2 growth inhibitors, dose response, SYBR Green, cherry-picked samples (AID 1159567); type: functional, cell-based
[28] = P. falciparum Dd2 growth inhibitors, dose response, SYBR Green, dry powder samples (AID 1159566); type: functional, cell-based;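 also: potency for growth inhibition with lower SYBR green DNA signal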
[29] = P. falciparum ATP4 D1247Y mutant growth inhibitors, dose response, NITD609-resistant line, SYBR Green, dry powder (AID 1159571); type: functional, cell-based;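 also: parasites synchronized at ring stage by sorbitol before testing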

CCN(CC)CCC(c1ccc2c(c1)OCO2)c1c(OC)cc(OC)c2c(-c3ccccc3)cc(=O)oc12 (stereo unspecified)
IC50 [1]: 18.2 µM (active)

COc1ccc(-c2csc3ncnc(N4CCN(CCO)CC4)c23)cc1
IC50 [1]: 13.8 µM (active)

Cc1ccc(S(=O)(=O)N2CCN(Cc3cc(C(C)C)ccc3O)CC2)cc1
IC50 (Coagulation factor XII): > 50 µM (inactive)

CC(NC(=O)c1cccc(S(=O)(=O)N2CCN(C)CC2)c1)C1CC2CCC1C2 (stereo unspecified)
IC50 [1]: 13.2 µM (active)

O=C(NCCN1CCc2ccccc2C1)C1CC(=O)N(C2CCCC2)C1 (stereo unspecified)
IC50 (Coagulation factor XII): > 50 µM (inactive)

COc1ccc(Br)cc1S(=O)(=O)Nc1ccon1
IC50 [2]: > 100 µM (not active)
IC50 [3]: > 100 µM (inactive)

Cc1nnc(NC(=O)c2c(F)c(F)c(F)c(F)c2F)s1
IC50 (Coagulation factor XII): > 50 µM (inactive)

CC1CCCCC1N=C(S)Nc1ccc(SC(F)F)cc1 (stereo unspecified)
EC50 [4]: 17.5 µM (active)
EC50 [5]: 19 µM (active)
IC50 [1]: 7.63 µM (active)

COc1ccc(OCCOC(=O)c2cc(S(=O)(=O)N3CCOCC3)c(Cl)cc2Cl)cc1
CC50 [6]: 23.9 µM (active)

O=c1c2cc(Br)ccc2nc(-c2ccc(Cl)cc2)n1O
EC50 (HEK293 [7]): 6.02 µM (active)
EC50 [8]: 1.24 µM (active)
IC50 (HEK293 [9]): > 20 µM (inactive)
IC50 (HEK293 [10]): > 20 µM (inactive)
IC50 (HEK293 [11]): 14.2 µM (inactive)
EC50 (Streptococcus): 2.6 µM (active)
EC50 [12]: 6.68 µM (active)
IC50 [1]: 5.01 µM (active)

NNC(=O)CN1C(=O)CN=C(c2ccccc2)c2cc(Br)ccc21
IC50 (Coagulation factor XII): > 50 µM (inactive)

CCOC(=O)Nc1cc(C)c(Cl)cc1OC
CC50 [6]: > 40 µM (active)

COC(=O)c1ccc(OC)c(S(=O)(=O)Nc2cnc3ccccc3c2)c1
IC50 [2]: > 10 µM (inconclusive)
IC50 [3]: > 10 µM (inactive)

Cc1cccc(-c2nc3cc(NC(=O)C4CCCO4)ccc3o2)c1 (stereo unspecified)
EC50 (BJ [13]): 23.3 µM (active)
EC50 [14]: 9.83 µM (active)
EC50 [15]: 9.78 µM (active)
EC50 (BJ [16]): 19.8 µM (active)
EC50 [17]: 1.51 µM (active)
EC50 [18]: 1.57 µM (active)
EC50 (BJ [19]): > 150 µM (not active)
EC50 [20]: 17 µM (active)
AC50 [21]: 43.3 µM (active)
AC50 [22]: 33.8 µM (active)
AC50 [23]: 9.84 µM (active)
AC50 [24]: 6.37 µM (active)
AC50 [25]: 26.9 µM (active)

CN(C)/C=C1\C=C(c2ccccc2)OC1=O
IC50 (Coagulation factor XII): > 50 µM (inactive)

C[C@@H]1CN([C@@H](C)CO)C(=O)c2cccc(NC(=O)Nc3ccccc3)c2O[C@@H]1CN(C)C(=O)Nc1ccccc1
AC50 [26]: 1.06 µM (active)
AC50 [27]: 0.37 µM (active)
AC50 [28]: 0.204 µM (active)
AC50 [29]: 0.216 µM (active)

COc1ccc(NC(=O)N(C)C[C@H]2Oc3c(NC(=O)Nc4ccccc4)cccc3C(=O)N([C@@H](C)CO)C[C@H]2C)cc1
AC50 [26]: 0.261 µM (active)
AC50 [27]: < 0.3 µM (active)
AC50 [28]: 0.167 µM (active)
AC50 [29]: 0.2 µM (active)
